{"source": "paper PMC5241874", "molecular_target": "T1, αγ heterodimer of human NAD-IDH (IDH3) (Homo sapiens, UniProt P50213+P51553)", "T1 construct": "gene IDH3A; alpha and gamma co-expressed in E. coli BL21(DE3) from pQlinkN; gamma C-terminal TEV-His6, His6 cleaved by TEV; 80 kDa heterodimer (dimer of heterodimers at high concentration)", "T1 sequence (P50213 28-366)": "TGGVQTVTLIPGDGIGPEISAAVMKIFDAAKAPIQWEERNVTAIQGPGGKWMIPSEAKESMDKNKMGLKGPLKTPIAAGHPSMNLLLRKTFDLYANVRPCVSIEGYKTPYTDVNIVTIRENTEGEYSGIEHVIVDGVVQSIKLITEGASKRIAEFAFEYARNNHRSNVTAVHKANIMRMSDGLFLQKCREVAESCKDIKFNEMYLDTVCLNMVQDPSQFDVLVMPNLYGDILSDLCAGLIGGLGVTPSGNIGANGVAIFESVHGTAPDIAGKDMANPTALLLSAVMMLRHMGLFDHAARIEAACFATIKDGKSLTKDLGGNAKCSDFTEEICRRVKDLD", "T1 sequence (P51553 40-393)": "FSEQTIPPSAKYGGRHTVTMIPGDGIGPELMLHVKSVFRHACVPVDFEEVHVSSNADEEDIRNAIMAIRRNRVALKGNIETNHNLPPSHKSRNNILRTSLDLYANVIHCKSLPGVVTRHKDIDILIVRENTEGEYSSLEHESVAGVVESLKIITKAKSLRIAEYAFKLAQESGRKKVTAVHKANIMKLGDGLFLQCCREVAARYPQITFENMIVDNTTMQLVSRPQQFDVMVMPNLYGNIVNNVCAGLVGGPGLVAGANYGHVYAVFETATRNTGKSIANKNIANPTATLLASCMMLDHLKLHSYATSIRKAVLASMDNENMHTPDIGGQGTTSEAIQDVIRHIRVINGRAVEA", "experiment": "crystal structure, […] Å", "type": "binding", "details": "allosteric citrate subsite in gamma subunit (second site), with Mg2+ and ADP; pH 7.5", "data": [{"smiles": "O=C(O)C[C@H](C(=O)O)[C@@H](O)C(=O)O", "note": "[ICT]", "values": [{"measurement": "crystal structure, 2.8 Å", "value": "In this structure, ICT binds to the CIT-binding subsite with a similar orientation as CIT"}]}]}
